Assay results: patent publication US6420374B1, “Use of xanthines as immunosuppressants and to inhibit allograft reactions” (Fred Hutchinson Cancer Research Center, priority 1990, dated 2002)
“Also recorded” adds a separate entry of the source. Where two headings read alike, the source gives them in different places.

Key:
[1] = tested on: bidirectional MLR of blood mononuclear cells; test: Bidirectional mixed leukocyte reaction (MLR), tritiated thymidine (3Htdr) uptake; format: cell-based, human; conditions: for inhibition of 3Htdr uptake: blood mononuclear cells with PHA and in bidirectional MLR's, after 6 days in culture, concentration dependent; for T cell activation and proliferation: both by direct stimulation with PHA and in an MLR; for lowest concentration with significant suppression of 3Htdr uptake / most effective concentration (highest concentration tested): PHA / MLR cultures; for suppressing lymphocyte activation evidenced by MLR: in vitro
Description: More particularly, co-cultivation of leukocytes from unrelated individuals leads to blast transformation and proliferation similar to that observed upon addition of mitogens to T-cells. The basis of this reaction appears to be the activation of T-cells from one individual by cell surface markers of another. Co-culturing of blood leukocytes from two individuals is referred to as “mixed leukocyte culture” or “MLC” and the reaction as “mixed leukocyte reaction” or “MLR”. Co-culturing of cells obtained from lymphoid organs is designated “mixed lymphocyte culture” or “mixed lymphocyte reaction”. Since even in the mixed leukocyte reaction, the participating cells are peripheral blood T lymphocytes, there is generally substantially no difference between the two types of culture. Thus, these expressions are used interchangeably herein.
MLR can be carried out using conventional techniques. Cultured cells for the MLR can be derived from peripheral blood, spleen, lymph nodes, or thymus. Cell number can vary by several orders of magnitude. The stimulating cells can be inactivated by irradiation or treatment with an antibiotic to disrupt DNA replication. The culture medium can be supplemented, if necessary, by serum proteins of autologous, syngeneic, allogeneic, or xenogeneic origin. Cultivation can be carried out over a period of several days. The degree of stimulation of responder cells by stimulating cells can be determined from the uptake rate of ^3H-thymidine or radiolabeled amino acids or by counting blasts and dividing cells. If a radiolabel is employed, it can be added to the culture several hours before harvesting.
When blood mononuclear cells from two unrelated individuals are cultured together, mutual stimulation occurs resulting in T cell activation and blastogenesis and ultimately in the generation of cytotoxic T cells and memory cells. This complex series of events, termed the mixed leukocyte reaction (MLR), requires genetic disparaties at the HLA-DR locus. Monocytic cells are needed for antigen processing and presentation. The MLR is thus measures lymphocyte recognition and response to non-self-antigens and serves as an in vitro representation of some of the cellular events associated with graft-versus-host disease (GVHD) and allograft rejection.
(§1) Results are the means SD of triplicate wells.
(§2) All values except those for M1 represent: the means of calculated results from 6 to 8 independent experiments. The M1 results are the average of 2 independent experiments.

TNF mRNA = TNF mRNA level in whole cellular RNA extracted from an MLR; format: cell-based, human; conditions: MLR containing the compound
Description: There was no decrease in cell viability in the test cultures as assessed by trypan blue dye exclusion (cell viability >95% in all groups). When whole cellular RNA was extracted from an MLR, there was some upregulation of […] compared to cultures of the mononuclear cells cultured individually. However, basal levels of TNF mRNA were readily detectable, possibly due to some activation during the culture period. This was also reflected by significant levels of ^3Htdr uptake.

[2] = tested on: T cell activation antigens (HLA-DR, transferrin receptor, IL-2 receptor, CD69; CD2); test: Expression of T cell activation antigens by direct immunofluorescence after 6 days in a bidirectional MLR; format: cell-based, human; conditions: for expression of CD69 / expression of HLA-DR / expression of the IL-2 receptor / expression of the transferrin receptor: to near the levels of mononuclear cells from a single donor
Method: The following fluorescein isothyoc:yanate (FITC) or phycoerythrin (PE) conjugated antibodies were used: IgGl and IgG2a isotype controls, anti-HLe-1 (CD45), anti-LeuM3 (CD14). anti-Leu4(cd3), anti-IL2-receptor (CD25), anti-transferrin receptor (CD71), anti-HLA-DR, and anti-Leu23 (CD69). (All antibodies were from Becton-Dickinson, San Jose, Calif.) Staining was performed using Manufacturer's recommendations ([…] antibody/10^6 cells in 0.1 ml of phosphate buffered saline for 20′ at room temperature). The cells were washed twice, resuspended and analyzed on a Becton-Dickinson FACSan flow cytometer operating under Consort 30 software. The lymphocyte analysis gate was determined on the basis of forward scatter and side scatter and confirmed by examination of two-color immunofluorescence display for CD4S and CD14. Data are presented as the percentage of cells with fluorescence greater than that of the appropriate isotype control.
During T cell activation, there is increased expression of certain cell surface determinants which can serve as markers of activation.

[3] = cited from earlier work; for rank among the metabolites of pentoxifylline: in vivo
[4] = tested on: PHA-stimulated mononuclear cells; test: PHA-stimulated blood mononuclear cells, tritiated thymidine (3Htdr) uptake; format: cell-based, human; conditions: rhTNF 200 U/ml added at inception of culture
Description: as §1, §2

TNF = test: Release of TNF into the culture medium; format: cell-based, human
TNF mRNA in U937 cells = conditions: cited from earlier work
[5] = human urine, Metabolites II and III together

## CCOCn1cnc2c1c(=O)n(CCCCC(C)(C)O)c(=O)n2C [Compound 1, 7-ethoxymethyl-1-(5-hydroxy-5-methylhexyl)-3-methylxanthine]
[1]
  inhibition of 3Htdr uptake: actively inhibited
  T cell activation and proliferation: suppressed
TNF mRNA
  level of TNF mRNA: significantly decreased
[2]
  expression of CD2 (non-activation dependent pan-T antigen): no differences
  expression of CD69: decreased
  expression of HLA-DR: decreased
  expression of the IL-2 receptor: decreased
  expression of the transferrin receptor: decreased

## CC(O)CCCCn1c(=O)c2c(ncn2C)n(C)c1=O (centres unmarked) [Compound M1, 1-(5-hydroxyhexyl)-3,7-dimethylxanthine]
[1]
  lowest concentration with significant suppression of 3Htdr uptake: 0.01 mM
  most effective concentration (highest concentration tested): 1 mM
  inhibition of 3Htdr uptake: actively inhibited
  T cell activation and proliferation: suppressed
[3]; human urine
  amount found in urine: Only traces
[3]
  rank among the metabolites of pentoxifylline: major metabolites

## CCCCn1c(=O)c2c(ncn2CC(C)=O)n(CCCC)c1=O [Denbufylline, 7-acetonyl-1,3-dibutyl-xanthine]
[1]
  suppressing lymphocyte activation evidenced by MLR: not effective
[1]; listed as compound (III)
  suppressing lymphocyte activation evidenced by MLR: has not been demonstrated

## Cn1cnc2c1c(=O)n(CCCCC(O)CO)c(=O)n2C (centres unmarked) [Metabolite II, 1-(5,6-dihydroxyhexyl)-3,7-dimethylxanthine]
[3]; [5]
  share of the excretion products: approximately 12%

## CC(O)C(O)CCCn1c(=O)c2c(ncn2C)n(C)c1=O (centres unmarked) [Metabolite III, 1-(4,5-dihydroxyhexyl)-3,7-dimethylxanthine]
[3]; [5]
  share of the excretion products: approximately 12%

## Cn1cnc2c1c(=O)n(CCCCC(=O)O)c(=O)n2C [Metabolite IV, 1-(4-carboxybutyl)-3,7-dimethylxanthine]
[3]; human urine
  share of the excretion products: about 8%

## Cn1cnc2c1c(=O)n(CCCC(=O)O)c(=O)n2C [Metabolite V, 1-(3-carboxypropyl)-3,7-dimethylxanthine]
[3]; human urine, main urinary metabolite
  share of the administered dose in urine: 50-60%
[3]
  rank among the metabolites of pentoxifylline: major metabolites

## CC(=O)CCCCn1c(=O)c2c(ncn2C)n(C)c1=O [PTX, 1-(5-oxohexyl)-3,7-dimethylxanthine]
[4]
  diminution in response to PHA after addition of recombinant human TNF: not abrogated
[1]
  lowest concentration with significant suppression of 3Htdr uptake: 0.01 mM
  most effective concentration (highest concentration tested): 1 mM
  inhibition of 3Htdr uptake: actively inhibited
  T cell activation and proliferation: suppressed
[1]; rhTNF 200 U/ml added at inception of culture
  diminution (suppression) of the MLR after addition of recombinant human TNF: not abrogated; also recorded: not reversed
TNF mRNA
  level of TNF mRNA: significantly decreased
[2]
  expression of CD2 (non-activation dependent pan-T antigen): no differences
  expression of CD69: decreased
  expression of HLA-DR: decreased
  expression of the IL-2 receptor: decreased
  expression of the transferrin receptor: decreased
TNF
  release of the cytokine (TNF) into the culture medium: decreased
TNF mRNA in U937 cells
  endotoxin induced upregulation of TNF mRNA: can prevent
